As a reminder, the IC50 is the concentration at which inhibition is half-maximal.

Our source for the IC50 values is patent US12570675B2, “Boronic acid compounds” (LG CHEM, LTD., priority 2020, dated 2026).

Sequence of Proteasome chymotrypsin-like activity (S26 protein from RPMI8226 cells) (P28074 60-263 limits assumed): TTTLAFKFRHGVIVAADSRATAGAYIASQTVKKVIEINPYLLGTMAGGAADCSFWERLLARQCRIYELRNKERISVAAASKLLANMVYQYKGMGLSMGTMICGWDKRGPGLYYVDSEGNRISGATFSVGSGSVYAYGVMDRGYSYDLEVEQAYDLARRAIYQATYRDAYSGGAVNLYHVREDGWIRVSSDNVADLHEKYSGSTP

The test concerns the target Proteasome chymotrypsin-like activity (S26 protein from RPMI8226 cells) (Homo sapiens, UniProt P28074). It is filed as biochemical. The following applies: S26 protein from RPMI8226 cell extract 2 ug/well, substrate 20 uM, 37° C., 90 minutes; read-out: Proteasome chymotrypsin-like activity inhibition IC50. As to the method:
The abilities to inhibit the proteasome activity of the compounds described in the Examples of the present invention and boronic acid drugs were evaluated as follows.
RPMI8226 cells, which is a multiple myeloma cell line, were cultured and then separated by a centrifuge, and washed twice with phosphate buffered saline (PBS). 20 mM of a tris-HCl (pH 8.0) buffer solution was added to the washed cells, and the cells were disrupted by a homogenizer and centrifuged to obtain S26 protein from the supernatant. Suc-Leu-Leu-Val-Tyr-AMC, for a fluorogenic substrate for the chymotrypsin-like activity of the proteasome, and Z-Leu-Leu-Glu-AMC, for a fluorogenic substrate for the caspase-like activity, were purchased from Calbiochem, EMD Millipore and used. Into each well of a 96-well plate (opaque, black round bottom), 20 ul of the S26 protein (final RPMI8226 cell extract concentration: 2 ug/well), 10 ul of S26 proteasome inhibitor serially diluted from 10 uM (final DMSO concentration: 0.5%), and 20 ul of the fluorogenic substrate for the proteasome chymotrypsin-like or caspase-like activity (final concentration: 20 uM) were added and mixed and allowed to react in a 37° C. incubator for 90 minutes. The fluorescence of the fluorogenic substrate was measured by FlexStation II Fluorometer (Molecular Devices). The fluorescence inhibited by the compound diluted at each concentration was measured as the relative percentage value for the amount obtained from the treatment only with the S26 protein and the fluorogenic substrate. IC50 (inhibitory concentration 50) was expressed in terms of a concentration that inhibits 50% of the maximum fluorescence induced by the fluorogenic substrate.
In the case of `CC(C)C[C@H](NC(=O)C1CC([C@@H](NC(=O)c2nccc3ccccc23)C(C)C)=NO1)B(O)O` (stereo partly drawn) [Example 67, ((1R)-1-(3-((S)-1-(isoquinolin-1-carboxamido)-2-methylpropyl)-4,5-dihydroisoxazol-5-carboxamido)-3-methylbutyl)boronic acid], the IC50 is < 25 nM.
With `CC(C)C[C@H](NC(=O)C1(Cc2cccc(Cl)c2)CC(CNC(=O)c2nccc3ccccc23)=NO1)B(O)O` (stereo partly drawn) [Example 175, ((1R)-1-(5-(3-chlorobenzyl)-3-((isoquinolin-1-carboxamido)methyl)-4,5-dihydroisoxazol-5-carboxamido)-3-methylbutyl)boronic acid], the IC50 was < 10 nM.
Take `Cc1nn(C(C)C)cc1C(=O)NCC1=NOC(Cc2ccccc2)(C(=O)N[C@@H](CC(C)C)B(O)O)C1` (stereo partly drawn) [Example 206, ((1R)-1-(5-benzyl-3-((1-isopropyl-3-methyl-1H-pyrazol-4-carboxamido)methyl)-4,5-dihydroisoxazol-5-carboxamido)-3-methylbutyl)boronic acid]: the IC50 is < 10 nM.
Turning to `CC(C)C[C@H](NC(=O)C1(Cc2ccccc2)CC(CNC(=O)c2cnnc3ccccc23)=NO1)B(O)O` (stereo partly drawn) [Example 165, ((1R)-1-(5-benzyl-3-((cinnolin-4-carboxamido)methyl)-4,5-dihydroisoxazol-5-carboxamido)-3-methylbutyl)boronic acid], the concentration for half-maximal inhibition (IC50) was < 10 nM.
As for `CC(C)C[C@H](NC(=O)C1CC(c2cc3ccccc3cn2)=NO1)B(O)O` (stereo partly drawn) [Example 22, ((1R)-1-(3-(isoquinolin-3-yl)-4,5-dihydroisoxazol-5-carboxamido)-3-methylbutyl)boronic acid], the IC50 is < 250 nM.
For `CC(C)C[C@H](NC(=O)C1(Cc2ccccc2)CC(C(C)(C)NC(=O)c2nccc3ccccc23)=NO1)B(O)O` (stereo partly drawn) [Example 157, [(1R)-1-[[5-benzyl-3-[1-(isoquinolin-1-carbonylamino)-1-methyl-ethyl]-4H-1,2-oxazol-5-carbonyl]amino]-3-methyl-butyl]boronic acid], the concentration for half-maximal inhibition (IC50) was < 10 nM.
As to `COc1cccc(C(=O)NCC2=NOC(Cc3ccccc3)(C(=O)N[C@@H](Cc3ccccc3)B(O)O)C2)c1` (stereo partly drawn) [Example 285, ((1R)-1-(5-benzyl-3-((3-methoxybenzamido)methyl)-4,5-dihydroisoxazol-5-carboxamido)-2-phenylethyl)boronic acid], the IC50 is < 10 nM.
On to `CC(C)C[C@H](NC(=O)C1(Cc2ccccc2)CC(CNC(=O)c2cc(C(C)C)on2)=NO1)B(O)O` (stereo partly drawn) [Example 182, ((1R)-1-(5-benzyl-3-((5-isopropylisoxazol-3-carboxamido)methyl)-4,5-dihydroisoxazol-5-carboxamido)-3-methylbutyl)boronic acid], for which the IC50 was < 10 nM.
The same measure for `CC(C)C[C@H](NC(=O)C1(Cc2ccccc2)CC(CNC(=O)c2cnc3ccccc3n2)=NO1)B(O)O` (stereo partly drawn) [Example 122, ((1R)-1-(5-benzyl-3-((quinoxalin-2-carboxamido)methyl)-4,5-dihydroisoxazol-5-carboxamido)-3-methylbutyl)boronic acid]: < 10 nM; for `CC[C@H](NC(=O)C1(Cc2ccccc2)CC(CNC(=O)c2nccc3ccccc23)=NO1)B(O)O` (stereo partly drawn) [Example 289, ((1R)-1-(5-benzyl-3-((isoquinolin-1-carboxamido)methyl)-4,5-dihydroisoxazol-5-carboxamido)propyl)boronic acid]: < 25 nM; for `Cc1cccc(CC2(C(=O)N[C@@H](CC(C)C)B(O)O)CC(CNC(=O)c3sc(C)nc3C)=NO2)c1` (stereo partly drawn) [Example 217, ((1R)-1-(3-((2,4-dimethylthiazol-5-carboxamido)methyl)-5-(3-methylbenzyl)-4,5-dihydroisoxazol-5-carboxamido)-3-methylbutyl)boronic acid]: < 10 nM.
With `O=C(NCC1=NOC(Cc2ccccc2)(C(=O)N[C@@H](Cc2ccccc2)B(O)O)C1)c1nccc2ccccc12` (stereo partly drawn) [Example 288, ((1R)-1-(5-benzyl-3-((isoquinolin-1-carboxamido)methyl)-4,5-dihydroisoxazol-5-carboxamido)-2-phenylethyl)boronic acid], the IC50 is < 10 nM.
To `CC(C)C[C@H](NC(=O)C1CC(c2ccc3ccccc3n2)=NO1)B(O)O` (stereo partly drawn) [Example 21, ((1R)-3-methyl-1-(3-(quinolin-2-yl)-4,5-dihydroisoxazol-5-carboxamido)butyl)boronic acid] belongs < 250 nM; to `COc1ccc(COCC2=NOC(Cc3ccccc3)(C(=O)N[C@@H](Cc3ccccc3)B(O)O)C2)cc1` (stereo partly drawn) [Example 275, ((1R)-1-(5-benzyl-3-(((4-methoxybenzyl)oxy)methyl)-4,5-dihydroisoxazol-5-carboxamido)-2-phenylethyl)boronic acid], < 50 nM; to `Cc1nc(C(=O)NCC2=NOC(Cc3ccccc3)(C(=O)N[C@@H](CC(C)C)B(O)O)C2)co1` (stereo partly drawn) [Example 173, ((1R)-1-(5-benzyl-3-((2-methyloxazol-4-carboxamido)methyl)-4,5-dihydroisoxazol-5-carboxamido)-3-methylbutyl)boronic acid], < 25 nM.
To `Cc1cccc(CC2(C(=O)N[C@@H](CC(C)C)B(O)O)CC(CNC(=O)c3c(Cl)c(C)nn3C(C)C)=NO2)c1` (stereo partly drawn) [Example 244, ((1R)-1-(3-((4-chloro-1-isopropyl-3-methyl-1H-pyrazol-5-carboxamido)methyl)-5-(3-methylbenzyl)-4,5-dihydroisoxazol-5-carboxamido)-3-methylbutyl)boronic acid] belongs < 10 nM.
As for `Cc1cc(COCC2=NOC(Cc3ccccc3)(C(=O)N[C@@H](Cc3ccccc3)B(O)O)C2)ccn1` (stereo partly drawn) [Example 277, ((1R)-1-(5-benzyl-3-(((2-methylpyridin-4-yl)methoxy)methyl)-4,5-dihydroisoxazol-5-carboxamido)-2-phenylethyl)boronic acid], the IC50 was < 10 nM.
With `CC(C)C[C@H](NC(=O)C1CC(C2CC2)=NO1)B(O)O` (stereo partly drawn) [Example 10, ((1R)-1-(3-cyclopropyl-4,5-dihydroisoxazol-5-carboxamido)-3-methylbutyl)boronic acid], the IC50 was < 500 nM.
As for `Cc1cccc(COCC2=NOC(Cc3ccccc3)(C(=O)N[C@@H](Cc3ccccc3)B(O)O)C2)c1` (stereo partly drawn) [Example 271, ((1R)-1-(5-benzyl-3-(((3-methylbenzyl)oxy)methyl)-4,5-dihydroisoxazol-5-carboxamido)-2-phenylethyl)boronic acid], the IC50 was < 10 nM.
On to `CC(C)C[C@H](NC(=O)C1(Cc2cc(F)cc(F)c2)CC(CNC(=O)c2nccc3ccccc23)=NO1)B(O)O` (stereo partly drawn) [Example 183, ((1R)-1-(5-(3,5-difluorobenzyl)-3-((isoquinolin-1-carboxamido)methyl)-4,5-dihydroisoxazol-5-carboxamido)-3-methylbutyl)boronic acid], for which the IC50 was < 10 nM.
Consider `CC(C)C[C@H](NC(=O)C1CC(c2ccccc2OC(F)(F)F)=NO1)B(O)O` (stereo partly drawn) [Example 39, ((1R)-3-methyl-1-(3-(2-(trifluoromethoxy)phenyl)-4,5-dihydroisoxazol-5-carboxamido)butyl)boronic acid], for which the IC50 was < 500 nM.
With `CC(C)C[C@H](NC(=O)C1CC(C(=O)NCc2cc(Cl)ccc2Cl)=NO1)B(O)O` (stereo partly drawn) [Example 75, ((1R)-1-(3-((2,5-dichlorobenzyl)carbamoyl)-4,5-dihydroisoxazol-5-carboxamido)-3-methylbutyl)boronic acid], the IC50 is < 100 nM.
Turning to `CC(C)C[C@H](NC(=O)C1ON=C(CNC(=O)c2nccc3ccccc23)C1C)B(O)O` (stereo partly drawn) [Example 65, ((1R)-1-(3-((isoquinolin-1-carboxamido)methyl)-4-methyl-4,5-dihydroisoxazol-5-carboxamido)-3-methylbutyl)boronic acid], the IC50 is < 250 nM.
With `Cc1nocc1C(=O)NCC1=NOC(Cc2ccccc2)(C(=O)N[C@@H](CC(C)C)B(O)O)C1` (stereo partly drawn) [Example 120, ((1R)-1-(5-benzyl-3-((3-methylisoxazol-4-carboxamido)methyl)-4,5-dihydroisoxazol-5-carboxamido)-3-methylbutyl)boronic acid], the IC50 was < 10 nM.
On to `CC(C)C[C@H](NC(=O)C1CC(c2ccc(Oc3ccccn3)cc2)=NO1)B(O)O` (stereo partly drawn) [Example 42, ((1R)-3-methyl-1-(3-(4-(pyridin-2-yloxy)phenyl)-4,5-dihydroisoxazol-5-carboxamido)butyl)boronic acid], for which the concentration for half-maximal inhibition (IC50) was < 250 nM.
To `CC(C)C[C@H](NC(=O)C1(Cn2cccn2)CC(CNC(=O)c2cccn3ccnc23)=NO1)B(O)O` (stereo partly drawn) [Example 149, ((1R)-1-(5-((1H-pyrazol-1-yl)methyl)-3-((imidazo[1,2-a]pyridin-8-carboxamido)methyl)-4,5-dihydroisoxazol-5-carboxamido)-3-methylbutyl)boronic acid] belongs < 10 nM.
For the molecule `CC(C)C[C@H](NC(=O)C1CC(CNC(=O)c2cccc3ncccc23)=NO1)B(O)O` (stereo partly drawn) [Example 62, ((1R)-3-methyl-1-(3-((quinolin-5-carboxamido)methyl)-4,5-dihydroisoxazol-5-carboxamido)butyl)boronic acid], the IC50 was < 25 nM.
